The text below walks through data of patent US10287305B2, “Substituted piperidine compound and use thereof” (Takeda Pharmaceutical Company Limited, priority 2016, dated 2019).

Test [1] concerns the target human orexin type 2 receptor (hOX2R) (Homo sapiens (Human), UniProt O43614). Put plainly: Measurement of orexin type 2 receptor agonist activity (Experimental Example 2-1, FLIPR TETRA, intracellular Ca2+). Format: cell-based. The conditions noted are these: CHO dhfr- cells expressing hOX2R; for Emax at 30 µM: value at 30 uM concentration, orexin B as full agonist = 100%.

The subject of test [2] is C57BL/6J mice. Put plainly: Measurement of locomotor activity in mice (Experimental Example 3). Format: in vivo, mouse. Particulars: male C57BL/6J mice; 30 mg/kg intraperitoneal; measured for 2 hr after administration. The method, then: Increased locomotor activity is one of the indexes of arousal action together with increase in wakefulness time, increase in body temperature, enhancement of cardiovascular system parameters and the like. In this Experimental Example, the arousal action effective for the treatment of narcolepsy was evaluated by measuring the locomotor activity of mouse. Male C57BL/6J mice (6-10 weeks old, Japan CLEA) were used for the measurement of locomotor activity (8 mice each group), infrared rays were irradiated from the top part of the cage, and a locomotor activity measuring device (MDC system—Neurosciences Idea) capable of quantifying the number of times the mice pass through the irradiated rays was used. To be specific, the mice were placed in the cage of the device and acclimatized for 4 hours or longer, and a test compound was intraperitoneally administered (dose: 30 mg/kg body weight). The locomotor activity was measured for 2 hr after the administration. In the test compound group, a solution obtained by dissolving the test compound in a solvent (composition: 10% DMSO, 10% Cremophor EL (trade name), 20% polyethylene glycol 400 (20% PEG400, 60% H2O)) was administered to mice. On the other hand, in the control group, only the aforementioned solvent not containing the test compound was administered to mice.

Test [3] concerns the target human OX2 receptor (Homo sapiens (Human), UniProt O43614). Put plainly: Measurement of orexin type 2 receptor agonist activity (Experimental Example 2-2, FDSS uCELL, calcium indicator). Format: cell-based. Particulars: CHO cells expressing human OX2 receptor; for EC50: Fluo-4 AM; for Emax: CHO. The method, then: CHO cells forcibly expressing human OX2 receptor were seeded in each well of 384 well black transparent bottom plate (BD Falcon) at 7,500 cells/well, and cultured for one day in a 5% CO2 incubator at 37° C. […] The plate was stood for 30 min in a 5% CO2 incubator at 37° C., and further stood at room temperature for 30 min. A test compound prepared by diluting with assay buffer B (HESS, 20 mM HEPES, 0.1% BSA) was added at 10 μL/well, and the fluorescence value was measured by FDSSμCELL (Hamamatsu Photonics K.K.) every one sec for 1 min, and thereafter every two sec for 1 min sec.

[4] abbreviates: agonist activity, 10 nM human orexin B = 100%.
Where [5] appears, read: DMSO = 0%, reference OX-A at 10 nM.

human OX2 receptor, sequence (O43614 whole entry): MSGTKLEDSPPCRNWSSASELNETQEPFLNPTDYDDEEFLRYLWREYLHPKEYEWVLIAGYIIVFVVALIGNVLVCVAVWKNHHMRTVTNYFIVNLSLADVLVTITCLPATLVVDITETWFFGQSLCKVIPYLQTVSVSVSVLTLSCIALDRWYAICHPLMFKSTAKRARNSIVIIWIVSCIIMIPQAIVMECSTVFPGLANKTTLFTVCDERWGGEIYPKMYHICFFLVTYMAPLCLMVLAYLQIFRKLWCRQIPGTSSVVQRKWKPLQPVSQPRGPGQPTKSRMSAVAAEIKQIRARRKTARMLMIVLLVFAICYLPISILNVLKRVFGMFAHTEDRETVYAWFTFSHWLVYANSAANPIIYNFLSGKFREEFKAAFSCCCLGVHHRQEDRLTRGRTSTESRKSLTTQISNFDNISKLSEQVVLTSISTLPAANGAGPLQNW
human orexin type 2 receptor (hOX2R), sequence (O43614 whole entry): as above

`CCNC(=O)N1CCC[C@H](NS(C)(=O)=O)[C@@H]1CO[C@H]1CC[C@@H](C(C)C)CC1` [Example 2, (2R,3S)—N-ethyl-2-(((cis-4-isopropylcyclohexyl)oxy)methyl)-3-((methylsulfonyl)amino)piperidine-1-carboxamide]: the half-maximal effective concentration (EC50) (as a rule, the concentration that produces a half-maximal response) in test [1] (setting [4]) stood at 1.9 nM. In test [1], the Emax – broadly, the maximal effect, on the per cent scale that the assay sets – at 30 µM is 99%. Besides, the “locomotor activity (counts) (mean ± S.E.M., n = 8)” value (from here on “locomotor activity (counts)”) in test [2] was found to be 817.00 counts.
In test [1] (FLIPR TETRA, Fluo-4AM), `CS(=O)(=O)N[C@H]1CCCN(C(=O)CO)[C@H]1CO[C@H]1CC[C@@H](c2c(F)ccc(F)c2F)CC1` [Example 340, N-((2R,3S)-1-glycoloyl-2-(((cis-4-(2,3,6-trifluorophenyl)cyclohexyl)oxy)methyl)piperidin-3-yl)methanesulfonamide] returned a 50% effective concentration (EC50) of 2.5 nM. Besides, in test [1] (FLIPR TETRA, Fluo-4AM, read-out: Emax (%)), the Emax was 109%. The “locomotor activity (counts)” value in test [2] was 979.25 ± 109.96 counts.
For the compound `CC(OC(=O)N1CCC[C@H](NS(=O)(=O)C2CC2)[C@@H]1COC1CCN(c2ncccn2)CC1)C(F)(F)F` (relative stereo) [Example 362, 1,1,1-trifluoropropan-2-yl cis-3-((cyclopropylsulfonyl)amino)-2-(((1-(pyrimidin-2-yl)piperidin-4-yl)oxy)methyl)piperidine-1-carboxylate], in test [3], the EC50 came to 390 nM. Also, in test [3] (setting [5]), the maximal effect (Emax) is 95%.
For `COC(=O)N1CCC[C@H](NS(C)(=O)=O)[C@@H]1CO[C@H]1CC[C@@H](c2ccc(O)cc2)CC1` [Example 348, methyl (2R,3S)-2-(((cis-4-(4-hydroxyphenyl)cyclohexyl)oxy)-methyl)-3-((methylsulfonyl)amino)piperidine-1-carboxylate], in test [3] (setting [5]), the “Emax (%)” value is 92%. The half-maximal effective concentration (EC50) in test [3] was found to be 9.5 nM.
For the compound `COC(=O)N1CCC[C@H](NS(C)(=O)=O)[C@@H]1CO[C@H]1CC[C@@H](c2ccccc2O)CC1` (relative stereo) [Example 347, methyl cis-2-(((cis-4-(2-hydroxyphenyl)cyclohexyl)oxy)-methyl)-3-((methylsulfonyl)amino)piperidine-1-carboxylate], in test [3], the half-maximal effective concentration (EC50) came to 260 nM. For the same compound, the maximal response (Emax) in test [3] (setting [5]) is 94%.
In test [1] (setting [4]), `COC(=O)N1CCC[C@H](NS(C)(=O)=O)[C@@H]1CO[C@H]1CC[C@@H](c2ccccc2)CC1` [Example 5, Methyl (2R,3S)-3-((methylsulfonyl)amino)-2-(((cis-4-phenylcyclohexyl)oxy)methyl)piperidine-1-carboxylate] displayed a half-maximal effective concentration (EC50) of 2.2 nM. Further, in test [1], the Emax at 30 µM turned out to be 98%. The “locomotor activity (counts)” value in test [2] came to 1175.25 counts.
